Target: T1, ERR1 (also known as ERR-α or ERR-1) (Homo sapiens, UniProt P11474)
T1 sequence (P11474 193-421 limits assumed): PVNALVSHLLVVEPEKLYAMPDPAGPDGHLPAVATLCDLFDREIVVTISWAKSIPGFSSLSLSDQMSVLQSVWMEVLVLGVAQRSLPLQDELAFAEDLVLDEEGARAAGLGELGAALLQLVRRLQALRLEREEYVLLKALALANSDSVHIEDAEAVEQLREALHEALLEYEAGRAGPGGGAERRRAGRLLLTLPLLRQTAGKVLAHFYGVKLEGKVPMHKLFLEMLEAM
Assay: TR-FRET assay: disruption of co-activator peptide (GST-hSRC2) binding to 6His-tagged ERR1 LBD
Type: biochemical
Settings: 6 nM ERR1LBD, 6 nM GST-SRC-2 peptide, 25° C., 4-18 hours; average of 3 independent experiments
Procedure: Time-Resolved Fluorescence Resonance Energy Transfer (TR-FRET) experiments were performed to examine the functional response of ERR1 (also known as ERR-α or ERR-1) ligands. The TR-FRET assay described herein relied on the conformation of ERR1 for binding to a co-activator peptide: when a test compound binds to ERR1 and alters its conformation, it can disrupt the binding of the co-activator peptide. The components of this homogeneous secondary assay included: the ^6His-tagged-ERR1LBD, a GST-labeled-hSRC2 co-activator polypeptide and a fluorescent donor/acceptor pair from CIS bio international htrf/bioassays (Bedford, Mass.) using both an α-GST Europium Cryptate (Eu) label and an α^6His-XL665 (allophycocyanin) fluorophore.
For TR-FRET measurements, the reaction was buffered in 25 mM Tris pH 8, 2.5 mM Hepes, 20 mM KCl, 1 mM DTT, and 0.05 mg/mL BSA (-lipids). The final concentrations of reagents were 6 nM of ERR1LBD, 6 nM GST-SRC-2 peptide, 30 nM Eu cryptate, and 7.5 nM XL665. Reactions were allowed to reach equilibrium at 25° C. for 4-18 hours before collecting data on the Analyst from LJL Biosystems (Molecular Devices Sunnyvale, Calif.). As a time-resolved method, the samples were excited at […] and emission was collected for 1 ms at both 615 and 665 nm with delays of 400 and 75 μs, respectively. Dose response curves were fitted using a hyperbolic equation and the data reported is the average of 3 independent experiments.
Compounds listed in Tables II below were tested in the above assay, and they are all active modulators of ERR1.

O=C1N=C(N[C@H]2CC[C@@H](C(=O)O)CC2)S/C1=C\c1ccc2c(cnn2Cc2ccc(Cl)cc2C(F)(F)F)c1 [Compound 44, (S,S)-4-{5-[1-(4-Chloro-2-trifluoromethyl-benzyl)-1H-indazol-5-ylmethylene]-4-oxo-4,5-dihydro-thiazol-2-ylamino}-cyclohexanecarboxylic acid]
EC50: 15 nM

O=C1N=C(N[C@@H]2CNC[C@H]2O)S/C1=C\c1ccc2c(cnn2Cc2ccc(Cl)cc2C(F)(F)F)c1 [Compound 47, (5Z)-5-({1-[4-Chloro-2-(trifluoromethyl)benzyl]-1H-indazol-5-yl}methylidene)-2-{[(3R,4R)-4-hydroxypyrrolidin-3-yl]amino}-1,3-thiazol-4(5H)-one]
EC50: 37 nM

COc1ccc(Cn2ncc3cc(/C=C4\SC(NCCCN5CCCC5=O)=NC4=O)ccc32)c(C(F)(F)F)c1 [Compound 7, 5-[1-(4-Methoxy-2-trifluoromethyl-benzyl)-1H-indazol-5-ylmethylene]-2-[3-(2-oxo-pyrrolidin-1-yl)-propylamino]-thiazol-4-one]
EC50: 4.4 nM

O=C1N=C(NCCOCCO)S/C1=C\c1ccc2c(cnn2Cc2ccc(Cl)cc2Cl)c1 [Compound 8, 5-[1-(2,4-Dichloro-benzyl)-1H-indazol-5-ylmethylene]-2-[2-(2-hydroxy-ethoxy)-ethylamino]-thiazol-4-one]
EC50: 73 nM

O=C1N=C(N[C@H]2CN3CCC2CC3)S/C1=C\c1ccc2c(cnn2Cc2ccc(C(F)(F)F)cc2C(F)(F)F)c1 [Compound 26, 2-(1-Aza-bicyclo[2.2.2]oct-3(R)-ylamino)-5-[1-(2,4-bis-trifluoromethyl-benzyl)-1H-indazol-5-ylmethylene]-thiazol-4-one]
EC50: 36 nM

COc1ccc(Cn2ncc3cc(/C=C4\SC(NCCN5CCOCC5)=NC4=O)ccc32)c(C(F)(F)F)c1 [Compound 5, 5-[1-(4-Methoxy-2-trifluoromethyl-benzyl)-1H-indazol-5-ylmethylene]-2-(2-morpholin-4-yl-ethylamino)-thiazol-4-one]
EC50: 3.2 nM

O=C(O)CC(O)CNC1=NC(=O)/C(=C/c2ccc3c(cnn3Cc3ccc(Cl)cc3C(F)(F)F)c2)S1 (stereo not drawn) [Compound 46, 4-{5-[1-(4-Chloro-2-trifluoromethyl-benzyl)-1H-indazol-5-ylmethylene]-4-oxo-4,5-dihydro-thiazol-2-ylamino}-3-hydroxy-butyric acid]
EC50: 22 nM

O=C1N=C(NC2CCN(CCO)CC2)S/C1=C\c1ccc2c(cnn2Cc2ccc(Cl)cc2C(F)(F)F)c1 [Compound 22, 5-[1-(4-Chloro-2-trifluoromethyl-benzyl)-1H-indazol-5-ylmethylene]-2-[1-(2-hydroxy-ethyl)-piperidin-4-ylamino]-thiazol-4-one]
EC50: 14 nM

O=C1N=C(NC2(C(=O)O)CC2)S/C1=C\c1ccc2c(cnn2Cc2ccc(C(F)(F)F)cc2C(F)(F)F)c1 [Compound 14, 1-{5-[1-(2,4-Bis-trifluoromethyl-benzyl)-1H-indazol-5-ylmethylene]-4-oxo-4,5-dihydro-thiazol-2-ylamino}-cyclopropanecarboxylic acid]
EC50: 6.5 nM

O=C1N=C(NCc2cncnc2)S/C1=C\c1ccc2c(cnn2Cc2ccc(C(F)(F)F)cc2C(F)(F)F)c1 [Compound 30, 5-[1-(2,4-Bis-trifluoromethyl-benzyl)-1H-indazol-5-ylmethylene]-2-[(pyrimidin-5-ylmethyl)-amino]-thiazol-4-one]
EC50: 11 nM

O=C1N=C(NCc2nn[nH]n2)S/C1=C\c1ccc2c(cnn2Cc2ccc(C(F)(F)F)cc2C(F)(F)F)c1 [Compound 15, 5-[1-(2,4-Bis-trifluoromethyl-benzyl)-1H-indazol-5-ylmethylene]-2-[(2H-tetrazol-5-ylmethyl)-amino]-thiazol-4-one]
EC50: 3.9 nM

O=C1N=C(N[C@H]2CN3CCC2CC3)S/C1=C\c1ccc2c(cnn2Cc2ccc(Cl)cc2C(F)(F)F)c1 [Compound 28, 2-(1-Aza-bicyclo[2.2.2]oct-3(R)-ylamino)-5-[1-(4-chloro-2-trifluoromethyl-benzyl)-1H-indazol-5-ylmethylene]-thiazol-4-one]
EC50: 6 nM

Cc1nnc(CNC2=NC(=O)/C(=C/c3ccc4c(cnn4Cc4ccc(C(F)(F)F)cc4C(F)(F)F)c3)S2)[nH]1 [Compound 36, 5-[1-(2,4-Bis-trifluoromethyl-benzyl)-1H-indazol-5-ylmethylene]-2-[(5-methyl-4H-[1,2,4]triazol-3-ylmethyl)-amino]-thiazol-4-one]
EC50: 4.8 nM

O=C1N=C(NCCN2CCCC2=O)S/C1=C\c1ccc2c(cnn2Cc2ccc(C(F)(F)F)cc2C(F)(F)F)c1 [Compound 34, 5-[1-(2,4-Bis-trifluoromethyl-benzyl)-1H-indazol-5-ylmethylene]-2-[2-(2-oxo-pyrrolidin-1-yl)-ethylamino]-thiazol-4-one]
EC50: 30.8 nM

O=C1N=C(NCc2cccnc2)S/C1=C\c1ccc2c(cnn2Cc2ccc(Cl)cc2C(F)(F)F)c1 [Compound 23, 5-[1-(4-Chloro-2-trifluoromethyl-benzyl)-1H-indazol-5-ylmethylene]-2-[(pyridin-3-ylmethyl)-amino]-thiazol-4-one]
EC50: 17 nM

O=C1N=C(NCCn2ccnc2)S/C1=C\c1ccc2c(cnn2Cc2ccc(Cl)cc2C(F)(F)F)c1 [Compound 24, 5-[1-(4-Chloro-2-trifluoromethyl-benzyl)-1H-indazol-5-ylmethylene]-2-(2-imidazol-1-yl-ethylamino)-thiazol-4-one]
EC50: 12 nM

O=C1CN(CCNC2=NC(=O)/C(=C/c3ccc4c(cnn4Cc4ccc(Cl)cc4C(F)(F)F)c3)S2)CCN1 [Compound 19, 4-(2-{5-[1-(4-Chloro-2-trifluoromethyl-benzyl)-1H-indazol-5-ylmethylene]-4-oxo-4,5-dihydro-thiazol-2-ylamino}-ethyl)-piperazin-2-one]
EC50: 11 nM

O=C1CN(CCNC2=NC(=O)/C(=C/c3ccc4c(cnn4Cc4ccc(C(F)(F)F)cc4C(F)(F)F)c3)S2)CCN1 [Compound 16, 4-(2-{5-[1-(2,4-Bis-trifluoromethyl-benzyl)-1H-indazol-5-ylmethylene]-4-oxo-4,5-dihydro-thiazol-2-ylamino}-ethyl)-piperazin-2-one]
EC50: 2.5 nM

O=C(O)CNC1=NC(=O)/C(=C/c2ccc3c(cnn3Cc3ccc(Cl)cc3C(F)(F)F)c2)S1 [Compound 4, {5-[1-(4-Chloro-2-trifluoromethyl-benzyl)-1H-indazol-5-ylmethylene]-4-oxo-4,5-dihydro-thiazol-2-ylamino}-acetic acid]
EC50: 23.1 nM

CN(C)CCCNC1=NC(=O)/C(=C/c2ccc3c(cnn3Cc3ccc(Cl)cc3C(F)(F)F)c2)S1 [Compound 3, 5-[1-(4-Chloro-2-trifluoromethyl-benzyl)-1H-indazol-5-ylmethylene]-2-(3-dimethylamino-propylamino)-thiazol-4-one]
EC50: 6.4 nM

O=C1N=C(N[C@@H]2CN3CCC2CC3)S/C1=C\c1ccc2c(cnn2Cc2ccc(C(F)(F)F)cc2C(F)(F)F)c1 [Compound 29, 2-(1-Aza-bicyclo[2.2.2]oct-3(S)-ylamino)-5-[1-(2,4-bis-trifluoromethyl-benzyl)-1H-indazol-5-ylmethylene]-thiazol-4-one]
EC50: 39 nM

From US8445690B2, “Aminothiazolones as estrogen related receptor-alpha modulators” (Janssen Pharmaceutica NV, priority 2010, dated 2013)
